These results are taken from patent publication US12338256B2, “Aza-tetracyclic oxazepine compounds and uses thereof” (Genentech, Inc., priority 2022, dated 2025).

Where two headings read alike, the source gives them in different places.

One assay concerns the target KRAS WT (Homo sapiens, UniProt P01116). Kind of assay: KRAS WI Biochemical Assay, BODIPY-GDP Exchange TR-FRET (Example 501; 3 nM KRAS WT, 3 nM SOS1, 60-minute incubation). Here is the method:
Example 501: KRAS WI Biochemical Assay, BODIPY-GDP Exchange TR-FRET. Biochemical compound potencies are assessed by evaluating inhibition of SOS1-mediated nucleotide exchange in KRAS WT. In this assay, the SOS1-promoted exchange of fluorescently-labeled GDP (BOPIDY-GDP) is monitored by time-resolved fluorescence resonance energy transfer (TR-FRET). Compounds solubilized in DMSO are dispensed as concentration series into 384-well white assay plates, and 5 uL assay buffer (20 mM HEPES, pH 7.5, 50 mM NaCl, 10 mM MgCl2, 0.01% Tween-20 and 1 mM dithiothreitol) is added just prior to the start of the assay. A preformed complex of 3 nM biotin-tagged recombinant human KRAS WT and 0.3 nM terbium-labeled streptavidin (CisBIO) prepared in 5 uL/well assay buffer is added and allowed to incubate for 10-minutes at room temperature. The reaction is initiated with the addition of 5 uL 3 nM recombinant human SOS1 and 300 nM BODIPY-GDP in assay buffer. After a 60-minute incubation, the fluorescence is measured with excitation at 337 nm and emission at 490 and 520 nm. The TR-FRET ratio is determined as the fluorescence at 520 nm divided by the fluorescence at 490 nm multiplied by 10,000. The results are normalized to percent inhibition based on control samples: DMSO (0% inhibition) and control compound at a concentration that inhibits completely (100% inhibition). The normalized TR-FRET results are plotted against compound concentration, and the data are fit to a 4-parameter Hill equation to determine the IC50 values.
On the technique in general: In TR-FRET formats the signal depends on donor and acceptor labels being close together.

The subject of assay [1] is AsPC-1 (homozygous mutant KRAS G12D human pancreatic cell line). In words: KRAS 3D-Cell Proliferation Assay, AsPC-1 (Example 503). It is filed as cell-based. The settings on record: Homo sapiens, ASPC1, 168 h, AsPC-1 3D culture, 7 days, CellTiter-Glo 3D; read-out: Prolif AsPC-1 3D ATP IC50. The gist of the method:
(§1)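 3D culture, ultra-low attachment wells; RPMI-1640/10% FBS/2 mM L-glutamine. Overnight settle, then compound series, 0.3% DMSO final, 7 d, 37° C, 5% CO2. Readout: CellTiter-Glo 3D luminescence. % inhibition vs DMSO (0%) and 1 μM staurosporine (100%); IC50 via 4-parameter Hill.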

Assay [2] has as its system PC-9 (KRAS wild type human lung adenocarcinoma cell line). In words: KRAS 3D-Cell Proliferation Assay, PC-9 (Example 503). It is filed as cell-based. The settings on record: 168 h, PC-9 3D culture, 7 days, CellTiter-Glo 3D, read-out: Prolif PC9 3D ATP IC50. The gist of the method: as §1
The target in another assay is KRAS G12D (Homo sapiens, UniProt P01116, G12D). In words: KRAS G12D LoEnz Biochemical Assay, BODIPY-GDP Exchange TR-FRET (Example 500). Conditions: read-out: KRas (G12D) GDP HTRF IC50. Here is the method:
Example 500: KRAS G12D LoEnz Biochemical Assay, BODIPY-GDP Exchange TR-FRET. Biochemical compound potencies are assessed by evaluating inhibition of SOS1-mediated nucleotide exchange in KRAS G12D. In this assay, the SOS1-promoted exchange of fluorescently-labeled GDP (BOPIDY-GDP) is monitored by time-resolved fluorescence resonance energy transfer (TR-FRET). Compounds solubilized in DMSO are dispensed as concentration series into 384-well white assay plates. A preformed complex of biotin-tagged recombinant human KRAS (0.06 nM mutant G12D) and 0.06 nM terbium-labeled streptavidin (CisBIO) prepared in 10 uL/well assay buffer (20 mM HEPES, pH 7.5, 50 mM NaCl, 10 mM MgCl2, 0.01% Tween-20 and 1 mM dithiothreitol) is added and allowed to incubate for 10-minutes at room temperature. The reaction is initiated with the addition of 5 uL 300 nM recombinant human SOS1 and 300 nM BODIPY-GDP in assay buffer. After a 120-minute incubation, the fluorescence is measured with excitation at 337 nm and emission at 490 and 520 nm. The TR-FRET ratio is determined as the fluorescence at 520 nm divided by the fluorescence at 490 nm multiplied by 10,000. The results are normalized to percent inhibition based on control samples: DMSO (0% inhibition) and control compound at a concentration that inhibits completely (100% inhibition). The normalized TR-FRET results are plotted against compound concentration, and the data are fit to a 4-parameter Hill equation to determine the IC50 values.

For assay [3], the system named is HPAC (homozygous mutant KRAS G12D human pancreatic cell line). In words: KRAS 3D-Cell Proliferation Assay, HPAC (Example 503). The settings on record: Homo sapiens, HPAC, 168 h, HPAC 3D culture, 7 days, CellTiter-Glo 3D; read-out: Prolif HPAC 3D ATP IC50. It is filed as cell-based. The method in brief: as §1
Background: Cellular ATP, detected with luciferase, serves as a proxy for viable cell number.

In assay [4] the test system is H1975 (KRAS wild type human lung adenocarcinoma cell line). Kind of assay: KRAS 3D-Cell Proliferation Assay, H1975 (Example 503). In kind it is cell-based. The settings on record: Homo sapiens, NCI-H1975, 168 h, H1975 3D culture, 7 days, CellTiter-Glo 3D; read-out: Prolif H1975 3D ATP IC50. The gist of the method: as §1
The mark [5] stands for this setting: SOS1-mediated BODIPY-GDP exchange, read-out: KRas(wt) GDP HTRF IC50.
The mark [6] stands for this setting: SOS1-mediated BODIPY-GDP exchange TR-FRET.
Setting [7] is: SOS1-mediated BODIPY-GDP exchange TR-FRET, read-out: KRas HTRF IC50.

KRAS WT, sequence (P01116 1-188 isoform P01116-2): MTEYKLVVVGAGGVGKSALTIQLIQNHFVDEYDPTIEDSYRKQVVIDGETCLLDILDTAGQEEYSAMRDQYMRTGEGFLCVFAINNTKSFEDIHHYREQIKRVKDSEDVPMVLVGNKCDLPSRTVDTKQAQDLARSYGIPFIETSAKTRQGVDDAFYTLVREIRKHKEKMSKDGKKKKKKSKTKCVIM
KRAS G12D, sequence (P01116 1-188 isoform P01116-2 G12D): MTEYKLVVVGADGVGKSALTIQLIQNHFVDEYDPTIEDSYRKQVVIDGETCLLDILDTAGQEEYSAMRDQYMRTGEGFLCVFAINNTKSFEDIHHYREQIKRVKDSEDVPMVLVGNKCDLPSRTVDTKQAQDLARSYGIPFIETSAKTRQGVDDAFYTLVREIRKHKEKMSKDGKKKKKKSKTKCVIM

As a reminder, the IC50 is the midpoint of a concentration-inhibition curve. With `Nc1nc2c(-c3nc4c5c(ncnc5c3F)N3C[C@H]5CC[C@H](N5)[C@H]3CO4)ccc(F)c2s1` [Compound 55, 7-fluoro-4-((5aS,6S,9R)-1-fluoro-5a,6,7,8,9,10-hexahydro-5H-4-oxa-3,10a,11,13,14-pentaaza-6,9-methanonaphtho[1,8-ab]heptalen-2-yl)benzo[d]thiazol-2-amine], the IC50 on KRAS WT (setting [5]) is at least 200000 nM; in assay [1], at least 20000 nM; in assay [2], 12800 nM.
Regarding `C[C@@H]1Oc2nc(-c3cc(N)nc4ccccc34)c(F)c3nc(OC[C@]45CCN4CC(F)(F)C5)nc(c23)N2C[C@H]3CC[C@H](N3)[C@@H]12` [Compound 79, 4-((5S,5aS,6S,9R)-12-(((R)-3,3-Difluoro-1-azabicyclo[3.2.0]heptan-5-yl)methoxy)-1-fluoro-5-methyl-5a,6,7,8,9,10-hexahydro-5H-4-oxa-3,10a,11,13,14-pentaaza-6,9-methanonaphtho[1,8-ab]heptalen-2-yl)quinolin-2-amine], the IC50 on KRAS G12D (BODIPY-GDP exchange) was 22.7 nM; in assay [1] it was 4040 nM; in assay [2], at least 20000 nM.
Turning to `Cc1nc(N)c(F)c(-c2nc3c4c(nc(OC[C@@]56CCCN5CC5(CC5(F)F)C6)nc4c2F)N2C[C@H]4CC[C@H](N4)[C@H]2[C@H](C)O3)c1C(F)(F)F` (stereo partly drawn) [Compound 221, 4-((5S,5aS,6S,9R)-12-(((7a′S)-2,2-Difluorodihydro-1′H,3′H-spiro[cyclopropane-1,2′-pyrrolizin]-7a′(5′H)-yl)methoxy)-1-fluoro-5-methyl-5a,6,7,8,9,10-hexahydro-5H-4-oxa-3,10a,11,13,14-pentaaza[6,9]methanonaphtho[1,8-ab]heptalene-2-yl)-3-fluoro-6-methyl-5-(trifluoromethyl)pyridin-2-amine], the IC50 worked out at 0.39 nM at KRAS G12D (setting [6]); 9.95 nM on KRAS WT (setting [7]); 1.2 nM in assay [1]; 1.45 nM in assay [3]; 498 nM in assay [4].
Consider `Cc1c(Cl)c(N)cc(-c2nc3c4c(nc(OC[C@@]56CCCN5C[C@H](F)C6)nc4c2F)N2C[C@H]4CC[C@H](N4)[C@H]2[C@H](C)O3)c1C(F)(F)F` (single isomer, unassigned) [Compound 200], for which the IC50 was determined as 0.1 nM at KRAS G12D (setting [6]), 6.7 nM on KRAS WT (setting [7]), 6.83 nM in assay [3] and 593 nM in assay [4].
With `Cc1c(F)c(N)cc(-c2nc3c4c(nc(OC[C@@]56CCCN5C[C@H](F)C6)nc4c2F)N2C[C@H]4CC[C@H](N4)[C@H]2[C@@H](C(F)(F)F)O3)c1C(F)(F)F` [Compound 246, 2-Fluoro-5-((5S,5aS,6S,9R)-1-fluoro-12-(((2R,7aS)-2-fluorotetrahydro-1H-pyrrolizin-7a(5H)-yl)methoxy)-5-(trifluoromethyl)-5a,6,7,8,9,10-hexahydro-5H-4-oxa-3,10a,11,13,14-pentaaza-6,9-methanonaphtho[1,8-ab]heptalene-2-yl)-3-methyl-4-(trifluoromethyl)aniline], the figures for the IC50 (on KRAS G12D (setting [6]); in assay [3]; in assay [4]) were 311 nM, 2000 nM and 20000 nM, respectively.
For the compound `C#Cc1cccc2cc(O)cc(-c3nc4c5c(nc(OC[C@]67CCN6CC(F)(F)C7)nc5c3F)N3C[C@H]5CC[C@H](N5)[C@H]3[C@H](C)O4)c12` (single isomer, unassigned) [Compound 19], the IC50 at KRAS G12D (BODIPY-GDP exchange) was found to be 0.08 nM; in assay [1] it was 5.05 nM; in assay [3], 3.31 nM; in assay [2] it was 8800 nM; in assay [4], 217 nM.
Regarding `Cc1cc(N)c(Cl)c(-c2nc3c4c(nc(OC[C@@]56CCCN5C[C@H](F)C6)nc4c2Cl)N2C[C@H]4CC[C@H](N4)[C@H]2[C@H](C)O3)c1C(F)(F)F` (single isomer, unassigned) [240 (atrop. 2)], the IC50 at KRAS G12D (setting [6]) is 0.14 nM; in assay [1], 1.5 nM.
For `Fc1c(-c2cccc3cccc(Cl)c23)nc2c3c(ncnc13)N1C[C@H]3CC[C@H](N3)[C@H]1CO2` [Compound 53, (5aS,6S,9R)-2-(8-Chloronaphthalen-1-yl)-1-fluoro-5a,6,7,8,9,10-hexahydro-5H-4-oxa-3,10a,11,13,14-pentaaza-6,9-methanonaphtho[1,8-ab]heptalene], the IC50 on KRAS WT (setting [5]) is at least 200000 nM.
